From US7829588B2, “Modulators of the PPAR-type receptors and pharmaceutical/cosmetic applications thereof” (Galderma Research & Development, priority 2003, dated 2010) come the findings set out here.

The target in one assay is T1, PPARγ (Homo sapiens, UniProt P37231).
T1 construct: luciferase reporter plasmid ERE-βGlob-Luc-SV-Neo
T1 sequence (P37231 238-505 limits assumed): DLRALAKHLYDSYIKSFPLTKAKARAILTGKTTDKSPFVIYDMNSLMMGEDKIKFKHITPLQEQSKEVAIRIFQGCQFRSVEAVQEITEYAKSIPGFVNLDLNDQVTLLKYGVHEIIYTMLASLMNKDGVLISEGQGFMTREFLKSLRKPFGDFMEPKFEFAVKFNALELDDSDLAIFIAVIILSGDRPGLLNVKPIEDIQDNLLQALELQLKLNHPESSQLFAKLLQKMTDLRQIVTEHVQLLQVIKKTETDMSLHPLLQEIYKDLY
Nature of the assay: Cross curve PPAR transactivation test (luciferase reporter, HeLN cells), PPARγ. The format is cell-based. Particulars: HeLN cells stably transfected with Gal-hPPARγ and ERE-βGlob-Luc-SV-Neo; Schild regression against reference agonist; read-out: PPAR γ Kd app. How it is done:
(§1) The activation of receptors with an agonist (activator) in HeLN cells leads to the expression of a reporter gene, luciferase, which, in the presence of a substrate, generates light. The modulation of the receptors is measured as quantity of luminescence produced after incubating the cells in the presence of a reference agonist. The ligands will displace the agonist from its site. The measurement of the activity is performed by quantification of the light produced. This measurement makes it possible to determine the modulatory activity of the compounds according to the invention by determining the constant which is the affinity of the molecule for the receptor. […]
(§2) The various dilutions of the test products and of the reference ligand are added in an amount of 5 μl per well. […] After 5 minutes, the plates are read by the luminescence reader.
(§3) These cross curves make it possible to determine the AC50 values (concentrations at which 50% activation is observed) for the reference ligand at various concentrations of test product. These AC50 values are used to calculate the Schild regression by plotting a straight line corresponding to the Schild equation (“Quantitation in Receptor Pharmacology” Terry P. Kenakin, Receptors and Channels, 2001, 7, 371-385) which leads to Kd app values being obtained (in nM).
Background: In a reporter assay the amount or activity of a reporter protein is the signal.

The target of a further assay is T2, PPARα (Homo sapiens, UniProt Q07869).
T2 sequence (Q07869 200-468 limits assumed): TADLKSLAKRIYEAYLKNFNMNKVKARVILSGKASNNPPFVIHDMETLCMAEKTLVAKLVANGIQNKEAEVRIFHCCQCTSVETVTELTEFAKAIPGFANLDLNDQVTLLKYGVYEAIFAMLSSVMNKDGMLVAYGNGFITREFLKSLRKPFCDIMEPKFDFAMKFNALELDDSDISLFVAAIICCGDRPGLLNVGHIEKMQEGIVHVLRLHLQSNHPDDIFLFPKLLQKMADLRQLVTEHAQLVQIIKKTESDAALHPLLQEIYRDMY
Nature of the assay: Cross curve PPAR transactivation test (luciferase reporter, HeLN cells), PPARα. The format is cell-based. The settings on record: HeLN cells stably transfected with Gal-hPPARα and ERE-βGlob-Luc-SV-Neo; Schild regression against reference agonist; n.a. means not active; read-out: PPAR α Kd app. The method, then:
as §1, §2, §3

With `CCCCCCCOc1cc(Sc2nnc(-c3ccc(C(C)(C)C)cc3)n2C)ccc1CNc1ccc(CC(=O)OCC)cc1` [Example 1, Ethyl(4-{4-[5-(4-tert-butylphenyl)-4-methyl-4H-[1,2,4]-triazol-3-ylsulfanyl]-2-heptyloxybenzylamino}phenyl)acetate], at PPARγ, the Kd came to 60 nM.
Turning to `CCCCCCCOc1cc(Sc2nnc(-c3ccc(C(C)(C)C)cc3)n2C)ccc1CNc1ccc(CC(=O)O)cc1` [Example 2, (4-{4-[5-(4-tert-Butylphenyl)-4-methyl-4H-[1,2,4]-triazol-3-ylsulfanyl]-2-heptyloxybenzylamino}phenyl)acetic acid], the results for the Kd on PPARα and on PPARγ were 8000 nM and 15 nM, respectively.
